According to PubChem BioAssay (NCI):
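48-hour exposure; five concentrations; linearly interpolated endpoints. The concentration for 50% growth inhibition is given as GI50. TGI: concentration producing complete growth inhibition.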

Legend:
Assay in all cases: DTP human tumour cell line panel, 48 h
[1] = system: UO-31 renal
[2] = system: MOLT-4 leukemia
[3] = system: COLO 205 colon
[4] = system: KM12 colon
[5] = system: OVCAR-5 ovarian
[6] = system: A498 renal
[7] = system: IGROV1 ovarian
[8] = system: MCF7 breast
[9] = system: NCI/ADR-RES ovarian
[10] = system: OVCAR-4 ovarian

Which results are given for `CC(C)(C)CI`?
TGI [1]: > 10 µM; TGI [2]: 76.9 µM; TGI [3]: 47 µM; TGI [4]: 64.6 µM; TGI [5]: > 100 µM; TGI [6]: > 100 µM; TGI [7]: > 100 µM

What does the source list for `COc1nc(NC2OC(CO)C(O)C(O)C2O)c(N)c(=O)[nH]1` (configuration not stated)?
TGI [1]: > 100 µM; TGI [8]: > 100 µM; TGI [2]: > 100 µM; TGI [3]: > 100 µM; TGI [4]: > 100 µM; TGI [5]: > 100 µM; TGI [6]: > 100 µM; TGI [7]: > 100 µM; TGI [9]: > 100 µM; TGI [10]: > 100 µM

How did the TGI [1] turn out when `CC1OC(CO)(n2cnc3c(N)ncnc32)C(O)C1O` (configuration not stated) was run?
Its TGI is greater than 100 µM.

And the TGI [8]?
Its TGI is greater than 100 µM.

What about the TGI [2] of the same compound?
Its TGI is greater than 100 µM.

What about the TGI [3] of the same compound?
The TGI was greater than 100 µM.

And the TGI [4]?
Its TGI is greater than 100 µM.

And the TGI [5]?
Its TGI is greater than 100 µM.

What about the TGI [6] of the same compound?
The TGI was greater than 100 µM.

What about the TGI [7] of the same compound?
Its TGI is greater than 100 µM.

What about the TGI [9] of the same compound?
Its TGI is greater than 100 µM.

What about the TGI [10] of the same compound?
Its TGI is greater than 100 µM.

Which TGI [1] does the source give for `COC(=O)Cc1c(C2C(CC(=O)OC)c3ccccc3N2C2OC(CO)C(O)C(O)C2O)[nH]c2ccccc12` (configuration not stated) here?
The TGI was greater than 100 µM.

And the TGI [2]?
Its TGI is greater than 100 µM.

And the TGI [3]?
The TGI was greater than 100 µM.

What about the TGI [4] of the same compound?
The TGI was greater than 100 µM.

What about the TGI [5] of the same compound?
The TGI was greater than 100 µM.

And the TGI [6]?
The TGI was greater than 100 µM.

What about the TGI [7] of the same compound?
Its TGI is greater than 100 µM.

And the TGI [10]?
The TGI was greater than 100 µM.

How did the TGI [1] turn out when `CON[N+]([O-])=NC(C)C` was run?
Its TGI is greater than 100 µM.

What about the TGI [8] of the same compound?
The TGI was greater than 100 µM.

What about the TGI [2] of the same compound?
The TGI was greater than 100 µM.

And the TGI [3]?
The TGI was greater than 100 µM.

What about the TGI [4] of the same compound?
The TGI was greater than 100 µM.

And the TGI [5]?
Its TGI is greater than 100 µM.

What about the TGI [6] of the same compound?
The TGI was greater than 100 µM.

And the TGI [7]?
Its TGI is greater than 100 µM.

And the TGI [9]?
The TGI was greater than 100 µM.

And the TGI [10]?
Its TGI is greater than 100 µM.

`CCCCCCCCCCCCCCCCCCOc1ccccc1COP(=O)(O)OOCC[N+](C)(C)C` was tested. Which GI50 [1] did it give?
Its GI50 is 1.27 µM.

And the TGI [1]?
Its TGI is 6.76 µM.

And the GI50 [8]?
The GI50 was 1.14 µM.

What about the TGI [8] of the same compound?
The TGI was 3.32 µM.

And the GI50 [3]?
The GI50 was 1.04 µM.

And the TGI [3]?
Its TGI is 2.57 µM.

And the GI50 [4]?
The GI50 was 1.01 µM.

What about the TGI [4] of the same compound?
The TGI was 2.12 µM.

And the GI50 [5]?
Its GI50 is 1.51 µM.

What about the TGI [5] of the same compound?
The TGI was 6.86 µM.

And the GI50 [6]?
The GI50 was 6.88 µM.

What about the TGI [6] of the same compound?
Its TGI is 17.2 µM.

And the GI50 [7]?
The GI50 was 0.738 µM.

And the TGI [7]?
The TGI was 1.5 µM.

What about the GI50 [9] of the same compound?
The GI50 was 6.59 µM.

And the TGI [9]?
Its TGI is 20.6 µM.

What about the GI50 [10] of the same compound?
The GI50 was 1.33 µM.

What about the TGI [10] of the same compound?
Its TGI is 9.92 µM.

For `O=c1oc2ccccc2n1P(=O)(Oc1ccc(Cl)cc1)n1c(=O)oc2ccccc21`, which TGI [1] is on record?
Its TGI is greater than 100 µM.

And the TGI [2]?
The TGI was greater than 100 µM.

What about the TGI [3] of the same compound?
Its TGI is greater than 100 µM.

And the TGI [4]?
Its TGI is greater than 100 µM.

And the TGI [5]?
The TGI was greater than 100 µM.

And the TGI [6]?
The TGI was greater than 100 µM.

And the TGI [7]?
Its TGI is greater than 100 µM.

And the TGI [10]?
Its TGI is greater than 100 µM.

Which results are given for `O=C1OC(c2ccccc2Br)=N/C1=C/c1ccccc1`?
TGI [1]: > 100 µM; TGI [8]: > 100 µM; TGI [2]: > 100 µM; TGI [4]: 34 µM; TGI [5]: > 100 µM; TGI [6]: > 100 µM; TGI [7]: > 100 µM; TGI [10]: > 100 µM

Which GI50 [1] does the source give for `COc1cc(N(CCCl)CCCl)ccc1/C=N\NC(=O)c1cccnc1` here?
Its GI50 is 23.8 µM.

What about the TGI [1] of the same compound?
Its TGI is 79.1 µM.

What about the GI50 [8] of the same compound?
The GI50 was 23.8 µM.

And the TGI [8]?
The TGI was greater than 100 µM.

And the GI50 [2]?
Its GI50 is 22.3 µM.

What about the TGI [2] of the same compound?
The TGI was 67.4 µM.

And the GI50 [3]?
Its GI50 is 13.5 µM.

And the TGI [3]?
Its TGI is greater than 100 µM.

What about the GI50 [4] of the same compound?
The GI50 was 33.6 µM.

And the TGI [4]?
Its TGI is greater than 100 µM.

What about the GI50 [5] of the same compound?
The GI50 was 8.34 µM.

What about the TGI [5] of the same compound?
Its TGI is 60.1 µM.

What about the GI50 [6] of the same compound?
The GI50 was 0.523 µM.

What about the TGI [6] of the same compound?
Its TGI is 1.98 µM.

And the GI50 [7]?
The GI50 was 36 µM.

And the TGI [7]?
The TGI was greater than 100 µM.

And the GI50 [9]?
Its GI50 is 24.9 µM.

And the TGI [9]?
The TGI was greater than 100 µM.

Which results are given for `O=C1CCC2COc3ccc(O)c1c32` (configuration not stated)?
TGI [2]: > 100 µM; TGI [3]: > 100 µM; TGI [6]: > 100 µM; TGI [7]: > 100 µM; TGI [10]: > 100 µM

`C#CCNC(=O)CC[C@@H](C)[C@H]1CC[C@H]2[C@@H]3CC[C@@H]4CC(=O)CC[C@]4(C)[C@H]3CC[C@]12C` was tested. Which GI50 [1] did it give?
Its GI50 is 0.192 µM.

What about the TGI [1] of the same compound?
The TGI was 0.424 µM.

What about the GI50 [8] of the same compound?
The GI50 was 12 µM.

And the TGI [8]?
The TGI was 52.7 µM.

And the GI50 [2]?
Its GI50 is 10.3 µM.

What about the TGI [2] of the same compound?
Its TGI is 43.7 µM.

What about the GI50 [3] of the same compound?
Its GI50 is 15.7 µM.

What about the TGI [3] of the same compound?
The TGI was 32.5 µM.

And the GI50 [4]?
The GI50 was 18.8 µM.

What about the TGI [4] of the same compound?
Its TGI is 70.2 µM.

And the GI50 [5]?
The GI50 was 22.1 µM.

And the TGI [5]?
Its TGI is 47.1 µM.

And the GI50 [6]?
Its GI50 is 25 µM.

And the TGI [6]?
The TGI was greater than 100 µM.

What about the GI50 [7] of the same compound?
The GI50 was 0.649 µM.

And the TGI [7]?
Its TGI is 3.13 µM.

What about the GI50 [9] of the same compound?
The GI50 was 16.9 µM.

What about the TGI [9] of the same compound?
The TGI was 45.3 µM.

And the GI50 [10]?
The GI50 was 14.9 µM.

And the TGI [10]?
The TGI was 52.6 µM.
